The values that follow come from patent US12018058B2, “Compositions and methods for diagnosing and/or treating kidney injury” (Boston Medical Center Corporation, priority 2018, dated 2024).

One experiment relates to primary human PTECs. In kind it is cell-based. Details: Improvement in cell survival: dose or concentration left out as unconfirmed. The note with it: for Cell survival after ischemic stress: PTECs, ATP depletion, versus control peptide. How it is done: Exposure to metabolic inhibitors is an established model of ischemic stress that reduces ATP content to, 10% of baseline values until recovery is initiated.24,26 To achieve ATP depletion, cells were washed three times in glucose-free DMEM (Invitrogen, Carlsbad, CA) followed by incubation in glucose-free DMEM containing sodium cyanide (5 mM) and 2-deoxy-glucose (5 mM) for the indicated times.26
Recovery was initiated by replacing the stress medium described above with complete primary cell culture medium containing glucose and substrates that support the rapid restoration of cell ATP.27
For in vitro testing in primary human PTECs, peptides ([…]) were tested that replicate the Bax domain responsible for binding NPM,34 or two peptides designed to interfere with NPM function were compared with a random nonspecific sequence of the same length (control). Peptides intended to interfere with NPM function overlap key phosphorylation sites located at the NPM amino terminus (peptide 2) or carboxy terminus (peptide 3) detected by mass spectrometry. To improve cell uptake, all peptides contained a cell-penetrating sequence13. For in vivo experiments, a renal-targeting sequence (NLS) was added to enhance renal peptide uptake.35 Peptides were commercially synthesized (Biomatik, Wilmington, DE) J Am Soc Nephrol 30: ccc-ccc, 2018 Nucleophosmin in AKI 3www.jasn.org BASIC RESEARCHas follows: NPM-Bax blocking peptide: Ac-KKKRKV-(bA)-[…]-COOH (SEQ ID NO: 8); peptide 2: AC-PKKKRKV-(bA)-[…]-COOH (SEQ ID NO: 9); and peptide 3: AC-PKKKRKV-(bA)-ESFKK-QEKTPKTPKGPSSVED-IKAK-COOH (SEQ ID NO: 10). A single dose ([…] of the NPM-Bax blocking or control peptide) was administered by tail vein injection immediately after release of the pedicle clamps(0 timepoint) […] in each experimental group. A total of 42 control and 56 experimental animals were studied.
Transient exposure to metabolic inhibitors replicates ischemia in vivo by activating Bax and causing cell death.13,29,36-38 Cell viability was assayed using a modified colorimetric technique (MTTassay).37 The number of surviving cells is expressed as a percentage of viable control cells detected at baseline. Serum BUN and creatinine levels were measured in tail vein blood samples for 7 days after ischemia using QuantiChrom BUN or creatinine assay kits (BioAssay Systems, Hayward, CA) according to the manufacturer's instructions.

The test system of the next experiment is NPM-Bax complex. Put plainly: NPM-Bax complex formation, 6A7 Bax immunoprecipitation and NPM immunoblot in ischemic PTEC. In kind it is cell-based. The settings on record: ischemic primary murine PTEC; compared to size matched random peptide. The text has this:
NPM is a relevant therapeutic target in human AKI. Primary human proximal tubule epithelial cells (PTEC) derived from cadaveric kidneys were subjected to ischemic stress (transient ATP depletion) in the presence of specific NPM siRNA or non-sense siRNA. […] Thus, manipulating NPM is an effective maneuver. […] Small peptides of 30 amino acids or less are sufficiently specific to minimize off target effects and also reduce the risk of eliciting an antibody response that causes tachyphylaxis. Peptides were commercially synthesized and fused to a nuclear localizing sequence (this NLS has no functional relationship to the “NPM NLS” that regulates NPM translocation). The NLS-CPP markedly increases renal accumulation of small peptides8 as well as in the proximal tubule. […] To determine its effect on NPM-Bax complex formation, active Bax was immunoprecipitated from PTEC rendered ischemic with an antibody directed against the 6A7 epitope. The precipitates were subjected to immunoblot analysis using an anti-NPM antibody. […] NPM and Bax accumulation was measured in mitochondria isolated from human PTEC after ischemic stress. […] This is likely due to the prolonged half-life (about 80 hr) of the peptide in vitro and in vivo due to the presence of an AC modification slows degradation.
(Immunoblotting shows a protein as a band on a membrane.)

Like-named read-outs stand apart in the source and are kept apart here. Square brackets hold non-standard residues; d marks the D form. Peptide text beside a SMILES is read from it. βAla = NCCC(=O)O

As for `CC[C@H](C)[C@H](NC(=O)[C@@H](NC(=O)[C@H](CC(C)C)NC(=O)[C@H](CO)NC(=O)[C@H](C)NC(=O)[C@@H](NC(=O)[C@H](CC(C)C)NC(=O)[C@@H](NC(=O)CNC(=O)[C@H](C)NC(=O)[C@@H](NC(=O)[C@H](Cc1ccccc1)NC(=O)[C@@H](NC(=O)[C@@H](NC(=O)[C@@H](NC(=O)[C@@H](NC(=O)CCNC(=O)[C@@H](NC(=O)[C@H](CCCCN)NC(=O)[C@H](CCCNC(=N)N)NC(=O)[C@H](CCCCN)NC(=O)[C@H](CCCCN)NC(=O)[C@H](CCCCN)NC(C)=O)C(C)C)[C@@H](C)O)C(C)C)[C@@H](C)O)[C@@H](C)CC)C(C)C)C(C)C)[C@@H](C)O)[C@@H](C)O)C(=O)N[C@@H](Cc1c[nH]c2ccccc12)C(=O)N[C@@H](CCCCN)C(=O)N[C@@H](CCCCN)C(=O)N[C@@H](CCSC)C(=O)NCC(=O)O` [Peptide #1] (Ac-KKKRKV[βAla]TVTIFVAGVLTASLTIWKKMG-OH), in the experiment with primary human PTECs, the “Improvement in cell survival” value turned out to be 25%. Also, the “Cell survival after ischemic stress” value is listed as “significantly improve cell survival” in the experiment on primary human PTECs (listed as Bax peptide) and “improves renal cell survival” in the experiment with primary human PTECs (listed as NPM blocking peptide). Also, the “Decrease of NPM-Bax complex formation” value in the experiment on NPM-Bax complex is “about 50%”.
